In patent US20170253607A1, “LONG-ACTING HIV PROTEASE INHIBITOR” (Shionogi & Co., Ltd., priority 2014, published 2017):
pIC50: −log10 of the molar value.

Biological target: HIV-1 PR (Human immunodeficiency virus type 1 group M subtype B, UniProt P04585)
Test: HIV-protease inhibitory activity assay (FRET peptide substrate)
Format: biochemical
Conditions: Test Example 1
In short: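 Compounds were preincubated with HIV-1 PR (0.83 ng) at room temperature in pH 4.8 NaAc buffer (0.5 M NaCl, EDTA, DTT, Tween 20), then HiLyte Fluor 488/QXL 520 FRET peptide (2 μmol/L final) was added for 60 min. Fluorescence was read at 485/535 nm, and IC50 was fitted by four-parameter logistic regression.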

Structure (SMILES) | pIC50
COc1ccc(S(=O)(=O)N(CC(C)C)CC(O)C(Cc2ccc(NCc3c(-c4sc5c(c4C(=O)O)CC(C)(C)CC5)ccc(F)c3F)cc2)NC(=O)OC2COC3(C)OCCC23)cc1 (stereo not shown) [Compound I-279] | 8.80
COc1ccc(S(=O)(=O)N(CC(C)C)CC(O)C(Cc2ccc(NCc3cc(-c4sc5c(c4C(=O)O)CC(C)(C)CC5)ccc3F)cc2)NC(=O)OC2COC3(C)OCCC23)cc1 (stereo not shown) [Compound I-280] | 8.49
COc1ccc(S(=O)(=O)N(CC(C)C)CC(O)C(Cc2ccc(NCc3cc(-c4sc5c(c4C(=O)O)CC(C)(C)CC5)ccc3OC)cc2)NC(=O)OC2COC3(C)OCCC23)cc1 (stereo not shown) [Compound I-281] | 8.53
COc1ccc(S(=O)(=O)N(CC(C)C)CC(O)C(Cc2ccc(NCc3ccc(-c4sc5c(c4C(=O)O)CC(C)(C)CC5)cc3F)cc2)NC(=O)OC2COC3(C)OCCC23)cc1 (stereo not shown) [Compound I-282] | 8.39
COc1ccc(S(=O)(=O)N(CC(C)C)CC(O)C(Cc2ccc(NCc3cccc(-c4sc5c(c4C(=O)O)CC(C)(C)CC5)n3)cc2)NC(=O)OC2COC3(C)OCCC23)cc1 (stereo not shown) [Compound I-283] | 8.64
COc1ccc(S(=O)(=O)N(CC(C)C)CC(O)C(Cc2ccc(NCc3cc(-c4sc5c(c4C(=O)O)CC(C)(C)CC5)co3)cc2)NC(=O)OC2COC3(C)OCCC23)cc1 (stereo not shown) [Compound I-284] | 8.53
COc1ccc(S(=O)(=O)N(CC(C)C)CC(O)C(Cc2ccc(NCc3ccc(-c4ccc(-c5sc6c(c5C(=O)O)CC(C)(C)CC6)cc4)cc3)cc2)NC(=O)OC2COC3(C)OCCC23)cc1 (stereo not shown) [Compound I-285] | 8.11
COc1ccc(S(=O)(=O)N(CC(C)C)CC(O)C(Cc2ccc(NCc3cnc4ccc(-c5sc6c(c5C(=O)O)CC(C)(C)CC6)cn34)cc2)NC(=O)OC2COC3(C)OCCC23)cc1 (stereo not shown) [Compound I-286] | 8.69
COc1ccc(S(=O)(=O)N(CC(C)C)CC(O)C(Cc2ccc(NCc3ccc(-c4sc5c(c4C(=O)O)CC(C)(C)CC5)o3)cc2)NC(=O)OC2COC3(C)OCCC23)cc1 (stereo not shown) [Compound I-288] | 8.66
COc1ccc(S(=O)(=O)N(CC(C)C)CC(O)C(Cc2ccc(NCc3nc(-c4sc5c(c4C(=O)O)CC(C)(C)CC5)cs3)cc2)NC(=O)OC2COC3(C)OCCC23)cc1 (stereo not shown) [Compound I-289] | 8.62
COc1ccc(S(=O)(=O)N(CC(C)C)CC(O)C(Cc2ccc(NCc3ccc(-c4sc5c(c4C(=O)O)CC(C)(C)CC5)cn3)cc2)NC(=O)OC2COC3(C)OCCC23)cc1 (stereo not shown) [Compound I-290] | 8.68
COc1ccc(S(=O)(=O)N(CC(C)C)CC(O)C(Cc2ccc(NCc3ccc(-c4sc5c(c4C(=O)O)CC(C)(C)CC5)c(F)c3)cc2)NC(=O)OC2COC3(C)OCCC23)cc1 (stereo not shown) [Compound I-291] | 8.45
COc1ccc(S(=O)(=O)N(CC(C)C)CC(O)C(Cc2ccc(NCc3ccc(OC)c(-c4sc5c(c4C(=O)O)CC(C)(C)CC5)c3)cc2)NC(=O)OC2COC3(C)OCCC23)cc1 (stereo not shown) [Compound I-293] | 8.72
COc1ccc(S(=O)(=O)N(CC(C)C)CC(O)C(Cc2ccc(NCc3cc(-c4sc5c(c4C(=O)O)CC(C)(C)CC5)ccc3OC(F)(F)F)cc2)NC(=O)OC2COC3(C)OCCC23)cc1 (stereo not shown) [Compound I-294] | 8.41
COc1ccc(S(=O)(=O)N(CC(C)C)CC(O)C(Cc2ccc(NCc3csc(-c4sc5c(c4C(=O)O)CC(C)(C)CC5)n3)cc2)NC(=O)OC2COC3(C)OCCC23)cc1 (stereo not shown) [Compound I-295] | 8.66
COc1ccc(S(=O)(=O)N(CC(C)C)CC(O)C(Cc2ccc(NCc3cc(F)cc(-c4sc5c(c4C(=O)O)CC(C)(C)CC5)c3)cc2)NC(=O)OC2COC3(C)OCCC23)cc1 (stereo not shown) [Compound I-296] | 8.72
COc1ccc(S(=O)(=O)N(CC(C)C)CC(O)C(Cc2ccc(N(Cc3ccccc3)Cc3ccccc3-c3sc4c(c3C(=O)O)CC(C)(C)CC4)cc2)NC(=O)OC2COC3(C)OCCC23)cc1 (stereo not shown) [Compound I-299] | 7.78
COc1ccc(S(=O)(=O)N(CC(C)C)CC(O)C(Cc2ccc(N3CCc4c(-c5sc6c(c5C(=O)O)CC(C)(C)CC6)cccc43)cc2)NC(=O)OC2COC3(C)OCCC23)cc1 (stereo not shown) [Compound I-300] | 8.32
COc1ccc(S(=O)(=O)N(CC(C)C)CC(O)C(Cc2ccc(OCc3ccccc3-c3ccc(-n4nc5c(c4C(=O)O)CC(C)(C)CC5)cc3)cc2)NC(=O)OC2COC3(C)OCCC23)cc1 (stereo not shown) [Compound I-301] | 8.50
COc1ccc(S(=O)(=O)N(CC(C)C)CC(O)C(Cc2ccc(OCc3ccccc3-c3ccc(-n4nc(C(=O)O)c5c4CCC(C)(C)C5)cc3)cc2)NC(=O)OC2COC3(C)OCCC23)cc1 (stereo not shown) [Compound I-302] | 8.64
COc1ccc(S(=O)(=O)N(CC(C)C)CC(O)C(Cc2ccc(OCc3ccnc(C(=O)O)c3)cc2)NC(=O)OC2COC3(C)OCCC23)cc1 (stereo not shown) [Compound I-306] | 8.72
COc1ccc(S(=O)(=O)N(CC(C)C)CC(O)C(Cc2ccc(OCc3cc(Cc4ccc(F)cc4)cnc3C(=O)O)cc2)NC(=O)OC2COC3(C)OCCC23)cc1 (stereo not shown) [Compound I-308] | 8.72
COc1ccc(S(=O)(=O)N(CC(C)C)CC(O)C(Cc2ccc(OCCn3ncc(C(=O)O)c3OC(C)C)cc2)NC(=O)OC2COC3(C)OCCC23)cc1 (stereo not shown) [Compound I-309] | 8.70

Structure (SMILES) | pIC50
COc1ccc(S(=O)(=O)N(CC(C)C)CC(O)C(Cc2ccc(OC3CCC(C(C)(C)C(=O)O)CC3)cc2)NC(=O)OC2COC3(C)OCCC23)cc1 (stereo not shown) [Compound I-310] | 8.71
COc1ccc(S(=O)(=O)N(CC(C)C)CC(O)C(Cc2ccc(OCc3ccccc3OCC(=O)O)cc2)NC(=O)OC2COC3(C)OCCC23)cc1 (stereo not shown) [Compound I-311] | 8.73
COc1ccc(S(=O)(=O)N(CC(C)C)CC(O)C(Cc2ccc(NCc3ccc4scc(C(=O)O)c4c3)cc2)NC(=O)OC2COC3(C)OCCC23)cc1 (stereo not shown) [Compound I-314] | 8.71
COc1ccc(S(=O)(=O)N(CC(C)C)CC(O)C(Cc2ccc(NCc3ccccc3OCC(=O)O)cc2)NC(=O)OC2COC3(C)OCCC23)cc1 (stereo not shown) [Compound I-315] | 8.70
COc1ccc(S(=O)(=O)N(CC(C)C)CC(O)C(Cc2ccc(NCc3ccc(C(=O)O)cc3)cc2)NC(=O)OC2COC3(C)OCCC23)cc1 (stereo not shown) [Compound I-316] | 8.73
COc1ccc(S(=O)(=O)N(CC(C)C)CC(O)C(Cc2ccc(NCc3cc(C(=O)O)c(C)o3)cc2)NC(=O)OC2COC3(C)OCCC23)cc1 (stereo not shown) [Compound I-317] | 8.73
COc1ccc(S(=O)(=O)N(CC(C)C)CC(O)C(Cc2ccc(NCc3c(C(=O)O)[nH]c4ccc(Cl)cc34)cc2)NC(=O)OC2COC3(C)OCCC23)cc1 (stereo not shown) [Compound I-319] | 8.68
COc1ccc(S(=O)(=O)N(CC(C)C)CC(O)C(Cc2ccc(NCc3cnn4ccc(C(=O)O)nc34)cc2)NC(=O)OC2COC3(C)OCCC23)cc1 (stereo not shown) [Compound I-320] | 8.71
COc1ccc(S(=O)(=O)N(CC(C)C)CC(O)C(Cc2ccc(NCc3ccc(OCC(=O)O)cc3)cc2)NC(=O)OC2COC3(C)OCCC23)cc1 (stereo not shown) [Compound I-321] | 8.72
COc1ccc(S(=O)(=O)N(CC(C)C)CC(O)C(Cc2ccc(NCc3ccc(-c4sc5c(c4C(=O)O)CC(C)(C)CC5)c4ccccc34)cc2)NC(=O)OC2COC3(C)OCCC23)cc1 (stereo not shown) [Compound I-322] | 7.98
COc1ccc(S(=O)(=O)N(CC(C)C)CC(O)C(Cc2ccc(NCc3ncn4cc(-c5sc6c(c5C(=O)O)CC(C)(C)CC6)ccc34)cc2)NC(=O)OC2COC3(C)OCCC23)cc1 (stereo not shown) [Compound I-323] | 8.62
COc1ccc(S(=O)(=O)N(CC(C)C)CC(O)C(Cc2ccc(OC3CC4CCC(C3)N4c3ccc(C#N)cc3-c3sc4c(c3C(=O)O)CC(C)(C)CC4)cc2)NC(=O)OC2COC3(C)OCCC23)cc1 (stereo not shown) [Compound I-324] | 7.71
COc1ccc(S(=O)(=O)N(CC(C)C)CC(O)C(Cc2ccc(OCC3CCN(c4ccc(C#N)cc4-c4sc5c(c4C(=O)O)CC(C)(C)CC5)CC3)cc2)NC(=O)OC2COC3(C)OCCC23)cc1 (stereo not shown) [Compound I-325] | 7.50
COc1ccc(S(=O)(=O)N(CC(C)C)CC(O)C(Cc2ccc(OCC3CCCN3c3ccc(C#N)cc3-c3sc4c(c3C(=O)O)CC(C)(C)CC4)cc2)NC(=O)OC2COC3(C)OCCC23)cc1 (stereo not shown) [Compound I-326] | 8.04
COc1ccc(S(=O)(=O)N(CC(C)C)CC(O)C(Cc2ccc(OCC3CCCN(c4ccc(C#N)cc4-c4sc5c(c4C(=O)O)CC(C)(C)CC5)C3)cc2)NC(=O)OC2COC3(C)OCCC23)cc1 (stereo not shown) [Compound I-327] | 7.98
COc1ccc(S(=O)(=O)N(CC(C)C)CC(O)C(Cc2ccc(OCC3CCCN(c4ccc(C#N)cc4-c4sc5c(c4C(=O)O)CC(C)(C)CC5)C3)cc2)NC(=O)OC2COC3(C)OCCC23)cc1 (stereo not shown) [Compound I-328] | 7.89
COc1ccc(S(=O)(=O)N(CC(C)C)CC(O)C(Cc2ccc(OCC3CN(c4ccc(C#N)cc4-c4sc5c(c4C(=O)O)CC(C)(C)CC5)C3)cc2)NC(=O)OC2COC3(C)OCCC23)cc1 (stereo not shown) [Compound I-329] | 8.12
COc1ccc(S(=O)(=O)N(CC(C)C)CC(O)C(Cc2ccc(OCC3CCC(Nc4ccc(C#N)cc4-c4sc5c(c4C(=O)O)CC(C)(C)CC5)CC3)cc2)NC(=O)OC2COC3(C)OCCC23)cc1 (stereo not shown) [Compound I-330] | 7.39
COc1ccc(S(=O)(=O)N(CC(C)C)CC(O)C(Cc2ccc(OC3CCCN(c4ccc(C#N)cc4-c4sc5c(c4C(=O)O)CC(C)(C)CC5)C3)cc2)NC(=O)OC2COC3(C)OCCC23)cc1 (stereo not shown) [Compound I-331] | 7.91
COc1ccc(S(=O)(=O)N(CC(C)C)CC(O)C(Cc2ccc(OC3CCCN(c4ccc(C#N)cc4-c4sc5c(c4C(=O)O)CC(C)(C)CC5)C3)cc2)NC(=O)OC2COC3(C)OCCC23)cc1 (stereo not shown) [Compound I-332] | 8.13
COc1ccc(S(=O)(=O)N(CC(C)C)CC(O)C(Cc2ccc(OCC3CCCN3c3ccc(C#N)cc3-c3sc4c(c3C(=O)O)CC(C)(C)CC4)cc2)NC(=O)OC2COC3(C)OCCC23)cc1 (stereo not shown) [Compound I-333] | 7.96
COc1ccc(S(=O)(=O)N(CC(C)C)CC(O)C(Cc2ccc(NCCCc3sc4c(c3C(=O)O)CC(C)(C)CC4)cc2)NC(=O)OC2COC3(C)OCCC23)cc1 (stereo not shown) [Compound I-335] | 8.74
COc1ccc(S(=O)(=O)N(CC(C)C)CC(O)C(Cc2ccc(N(C)CCCc3sc4c(c3C(=O)O)CC(C)(C)CC4)cc2)NC(=O)OC2COC3(C)OCCC23)cc1 (stereo not shown) [Compound I-336] | 8.67
